Each structure is given as a SMILES string.

The values that follow come from US20100267697A1, “ION CHANNEL MODULATORS” (Wyeth, priority 2006, published 2010).

For this test, the target named is T1, human Cav2.2 (composed of the subunits α1, β3 and α2δ) (Homo sapiens, UniProt Q00975).
T1 construct: expressed in transfected cells
T1 sequence (Q00975 whole entry): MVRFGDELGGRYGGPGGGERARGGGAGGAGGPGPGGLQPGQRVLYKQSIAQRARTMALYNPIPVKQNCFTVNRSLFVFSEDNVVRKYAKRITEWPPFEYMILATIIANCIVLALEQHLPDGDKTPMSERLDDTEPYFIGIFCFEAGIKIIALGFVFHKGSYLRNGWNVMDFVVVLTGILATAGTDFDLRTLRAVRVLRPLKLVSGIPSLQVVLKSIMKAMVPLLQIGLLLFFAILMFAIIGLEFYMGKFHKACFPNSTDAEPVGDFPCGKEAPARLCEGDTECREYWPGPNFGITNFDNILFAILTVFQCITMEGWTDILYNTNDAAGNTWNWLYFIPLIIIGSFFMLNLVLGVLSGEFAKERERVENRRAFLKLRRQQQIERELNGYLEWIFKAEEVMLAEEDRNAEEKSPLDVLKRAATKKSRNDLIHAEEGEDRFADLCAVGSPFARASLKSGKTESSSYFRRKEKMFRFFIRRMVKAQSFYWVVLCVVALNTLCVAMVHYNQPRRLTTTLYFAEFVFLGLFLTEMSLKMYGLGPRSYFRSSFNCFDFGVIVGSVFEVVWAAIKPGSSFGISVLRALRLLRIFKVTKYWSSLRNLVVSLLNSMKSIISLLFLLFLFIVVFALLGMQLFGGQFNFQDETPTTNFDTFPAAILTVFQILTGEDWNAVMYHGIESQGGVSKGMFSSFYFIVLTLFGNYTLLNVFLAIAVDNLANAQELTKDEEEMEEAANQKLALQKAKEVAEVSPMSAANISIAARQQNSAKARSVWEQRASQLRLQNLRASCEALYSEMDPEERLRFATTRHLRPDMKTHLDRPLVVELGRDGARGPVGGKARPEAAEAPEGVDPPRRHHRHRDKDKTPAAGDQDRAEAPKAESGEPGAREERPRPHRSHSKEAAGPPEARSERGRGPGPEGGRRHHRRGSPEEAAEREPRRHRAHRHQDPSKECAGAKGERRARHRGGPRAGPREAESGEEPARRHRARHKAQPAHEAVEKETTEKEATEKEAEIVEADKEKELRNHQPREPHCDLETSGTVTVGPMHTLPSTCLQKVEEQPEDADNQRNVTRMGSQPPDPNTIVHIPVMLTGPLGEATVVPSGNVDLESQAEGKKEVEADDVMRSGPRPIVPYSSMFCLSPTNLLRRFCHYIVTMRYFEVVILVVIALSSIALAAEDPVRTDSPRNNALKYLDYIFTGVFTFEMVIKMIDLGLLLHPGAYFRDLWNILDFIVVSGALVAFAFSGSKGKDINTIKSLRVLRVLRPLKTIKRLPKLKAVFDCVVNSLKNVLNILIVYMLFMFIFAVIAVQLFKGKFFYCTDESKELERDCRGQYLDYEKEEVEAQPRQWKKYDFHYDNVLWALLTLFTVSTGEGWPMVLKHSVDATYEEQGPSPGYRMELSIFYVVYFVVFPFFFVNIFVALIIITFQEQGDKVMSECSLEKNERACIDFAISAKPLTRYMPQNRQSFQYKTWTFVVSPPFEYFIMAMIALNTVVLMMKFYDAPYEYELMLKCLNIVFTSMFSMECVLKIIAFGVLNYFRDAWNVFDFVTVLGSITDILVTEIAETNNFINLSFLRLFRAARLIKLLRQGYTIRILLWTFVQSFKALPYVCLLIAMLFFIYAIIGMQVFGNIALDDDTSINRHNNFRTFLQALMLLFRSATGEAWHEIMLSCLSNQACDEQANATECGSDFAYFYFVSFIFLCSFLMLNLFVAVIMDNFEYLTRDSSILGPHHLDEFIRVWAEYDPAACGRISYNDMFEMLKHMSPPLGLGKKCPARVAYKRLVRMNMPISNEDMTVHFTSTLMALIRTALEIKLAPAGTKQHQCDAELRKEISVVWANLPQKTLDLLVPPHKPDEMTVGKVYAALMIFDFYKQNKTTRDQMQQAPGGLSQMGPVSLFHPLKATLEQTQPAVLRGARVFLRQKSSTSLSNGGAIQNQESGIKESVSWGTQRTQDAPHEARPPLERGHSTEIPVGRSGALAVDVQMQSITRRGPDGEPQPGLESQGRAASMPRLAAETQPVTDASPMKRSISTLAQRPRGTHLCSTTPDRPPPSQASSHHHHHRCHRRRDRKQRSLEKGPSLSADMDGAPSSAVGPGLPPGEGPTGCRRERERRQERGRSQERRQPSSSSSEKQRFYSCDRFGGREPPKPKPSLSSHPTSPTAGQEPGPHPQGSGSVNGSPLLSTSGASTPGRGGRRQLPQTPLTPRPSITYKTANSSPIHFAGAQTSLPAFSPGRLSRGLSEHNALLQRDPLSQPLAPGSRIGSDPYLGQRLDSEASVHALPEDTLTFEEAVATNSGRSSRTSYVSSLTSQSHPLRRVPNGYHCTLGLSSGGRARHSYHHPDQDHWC
T1 sequence (P54284 whole entry partner): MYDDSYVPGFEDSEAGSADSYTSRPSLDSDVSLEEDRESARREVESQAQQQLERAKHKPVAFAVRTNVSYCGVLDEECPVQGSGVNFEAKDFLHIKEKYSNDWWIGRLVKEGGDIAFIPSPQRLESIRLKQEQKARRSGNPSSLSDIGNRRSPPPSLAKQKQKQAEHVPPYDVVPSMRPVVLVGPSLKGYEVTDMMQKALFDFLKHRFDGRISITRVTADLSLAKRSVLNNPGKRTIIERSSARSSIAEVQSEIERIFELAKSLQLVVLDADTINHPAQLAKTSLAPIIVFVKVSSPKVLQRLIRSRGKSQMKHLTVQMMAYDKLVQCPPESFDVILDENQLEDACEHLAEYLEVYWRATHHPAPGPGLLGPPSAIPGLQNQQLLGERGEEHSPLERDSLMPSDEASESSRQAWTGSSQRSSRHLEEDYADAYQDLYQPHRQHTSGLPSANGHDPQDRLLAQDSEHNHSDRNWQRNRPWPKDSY
T1 sequence (P54289 25-946 partner limits assumed): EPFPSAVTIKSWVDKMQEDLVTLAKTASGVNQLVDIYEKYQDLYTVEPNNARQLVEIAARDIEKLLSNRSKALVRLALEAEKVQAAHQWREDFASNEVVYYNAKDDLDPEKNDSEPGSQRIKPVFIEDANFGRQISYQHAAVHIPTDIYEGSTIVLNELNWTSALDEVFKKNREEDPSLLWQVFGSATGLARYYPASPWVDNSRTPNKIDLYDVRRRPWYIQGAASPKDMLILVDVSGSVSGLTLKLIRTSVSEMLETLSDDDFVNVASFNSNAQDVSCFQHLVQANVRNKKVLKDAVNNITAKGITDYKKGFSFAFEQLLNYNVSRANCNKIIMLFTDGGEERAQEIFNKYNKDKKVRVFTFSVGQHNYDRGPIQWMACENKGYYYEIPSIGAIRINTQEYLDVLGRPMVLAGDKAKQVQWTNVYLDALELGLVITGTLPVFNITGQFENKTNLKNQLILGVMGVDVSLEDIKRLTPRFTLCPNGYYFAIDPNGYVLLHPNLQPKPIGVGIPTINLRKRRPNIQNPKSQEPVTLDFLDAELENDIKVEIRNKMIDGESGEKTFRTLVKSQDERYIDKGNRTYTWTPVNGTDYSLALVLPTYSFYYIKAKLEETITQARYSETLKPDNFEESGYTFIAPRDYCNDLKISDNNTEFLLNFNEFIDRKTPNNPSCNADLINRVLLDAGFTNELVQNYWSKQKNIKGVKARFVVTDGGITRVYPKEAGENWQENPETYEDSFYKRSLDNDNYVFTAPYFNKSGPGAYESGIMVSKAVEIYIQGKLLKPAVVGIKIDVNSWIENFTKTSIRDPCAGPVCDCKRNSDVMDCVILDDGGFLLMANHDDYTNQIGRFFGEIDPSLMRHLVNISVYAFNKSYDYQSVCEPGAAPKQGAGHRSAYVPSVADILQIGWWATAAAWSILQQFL
T1 sequence (P54289 947-1103 partner limits assumed): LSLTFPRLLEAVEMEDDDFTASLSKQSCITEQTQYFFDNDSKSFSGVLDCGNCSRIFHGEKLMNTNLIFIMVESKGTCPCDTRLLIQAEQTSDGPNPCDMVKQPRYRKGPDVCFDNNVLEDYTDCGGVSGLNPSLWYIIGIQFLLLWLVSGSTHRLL
Put plainly: FLIPR assay (TSA201 cells stably transfected with human Cav2.2 and human Kir2.3, FLUO-4 Ca2+ signal, KCl depolarization). Particulars: 70 mM KCl depolarization, average value. It counts as cell-based. The procedure: TSA201 cells stably transfected with human Cav2.2 (composed of the subunits α1, β3 and α2δ) and human Kir2.3 to enhance the FLIPR Ca^2+ signal were used. These cells were plated on 384-well collagen-coated plates (BD Bioscience, Franklin Lakes, N.J.) at a density of 2×10^4 cells/well one day prior to the FLIPR assay. […] Culture media is removed and replaced with 25 μl of the FLUO-4 dye solution and incubated for one hour at room temperature. The cell plate is then placed on the FLIPR where the dye is aspirated off and replaced with 25 μl of HBSS (Invitrogen, Carlsbad, Calif.). The HBSS is then aspirated and replaced with […] of compound which is diluted in HBSS with 1% DMSO. Compounds are incubated on the cells for 15 minutes. The cells are then depolarized with 25 μl of 140 mM KCl solution (also containing 2 mM CaCl2 and 10 mM HEPES). The final concentration of KCl on the cells is 70 mM.
Consider `CCN(c1nc(CN(C(=O)C(C)(C)C)c2cccc3c2CCCC3)cs1)C1CC1` [Compound 176, N-({2-[cyclopropyl(ethyl)amino]-1,3-thiazol-4-yl}methyl)-2,2-dimethyl-N-(5,6,7,8-tetrahydronaphthalen-1-yl)propanamide], for which the IC50 (commonly the concentration at which inhibition is half-maximal) turned out to be 7.1 µM. In other words, the single-digit micromolar range.

Take `CC(C)(C)C(=O)N(Cc1csc(-c2ccccc2C(F)(F)F)n1)c1ccc(F)cc1` [Compound 243, N-(4-fluorophenyl)-2,2-dimethyl-N-({2-[2-(trifluoromethyl)phenyl]-1,3-thiazol-4-yl}methyl)propanamide]: the IC50 worked out at 4.1 µM.

On to `CC(C)(C)C(=O)N(Cc1csc(N2CCN(C(c3ccccc3)c3ccccc3)CC2)n1)c1ccc(F)cc1` [Compound 167, N-({2-[4-(diphenylmethyl)piperazin-1-yl]-1,3-thiazol-4-yl}methyl)-N-(4-fluroophenyl)-2,2-dimethylpropanamide], for which the IC50 is 13.3 µM.

`CC(C)(C)C(=O)N(Cc1csc(-c2ccc(F)cc2)n1)c1ccc(F)cc1` [Compound 247, N-(4-fluorophenyl)-N-{[2-(4-fluorophenyl)-1,3-thiazol-4-yl]methyl}-2,2-dimethylpropanamide] returned a 50% inhibitory concentration (IC50) of 5 µM. Compared with the last molecule, the IC50 is about 2.7-fold lower.

In turn, `COc1ccc(N(C)c2nc(CN(C(=O)C(C)(C)C)c3ccc(F)cc3)cs2)cc1` [Compound 142, N-(4-fluroophenyl)-N-({2-[(4-methoxyphenyl)(methyl)amino]-1,3-thiazol-4-yl}methyl)-2,2-dimethylpropanamide] yielded an IC50 of 6.8 µM.

For the molecule `CCN(CC)C1CCN(c2ccc(CN(C(=O)C(C)(C)C)c3ccc(F)cc3)cn2)C1` (stereo not drawn) [Compound 133, N-({6-[3-(diethylamino)pyrrolidin-1-yl]pyridin-3-yl}methyl)-N-(4-fluorophenyl)-2,2-dimethylpropanamide], the IC50 came to 11.5 µM.

The molecule `CC(=O)N(Cc1csc(N2CCOCC2)n1)c1ccc(F)cc1` [Compound 218, N-(4-fluorophenyl)-N-[(2-morpholin-4-yl-1,3-thiaozl-4-yl)methyl]acetamide] gave an IC50 of 23.4 µM.

For the molecule `CC(C)(C)C(=O)N(Cc1csc(NC2CCCC2)n1)c1ccc(F)cc1` [Compound 156, N-{[2-(cyclopentylamino)-1,3-thiazol-4-yl]methyl}-N-(4-fluorophenyl)-2,2-dimethylpropanamide], half-maximal inhibition (IC50) required 3 µM.

Turning to `CC(C)(C)OC(=O)N1CC[C@H](C(=O)N(Cc2ccc(Cl)nc2)c2ccc(F)cc2)C1` [Compound 254, TERT-BUTYL (3S)-3-{[(6-CHLOROPYRIDIN-3-YL)METHYL](4-FLUOROPHENYL)CARBAMOYL}PYRROLIDINE-1-CARBOXYLATE], the midpoint of inhibition, the IC50, lay at 2.9 µM.

On to `CC(C)(C)OC(=O)N1CCN(c2nc(CN(C(=O)C(C)(C)C)c3ccc(F)cc3)cs2)CC1` [Compound 146, tert-butyl 4-(4-{[(2,2-dimethylpropanoyl)(4-fluorophenyl)amino]methyl}--1,3-thiazol-2-yl)piperazine-1-carboxylate], for which inhibition was half-maximal at 35.4 µM (IC50).

On to `CC(C)(C)C(=O)N(Cc1csc(-c2cnc3ccccc3c2)n1)c1ccc(F)cc1` [Compound 240, N-(4-fluorophenyl)-2,2-dimethyl-N-[(2-quinolin-3-yl-1,3-thiazol-4-yl)methyl]propanamide], for which the IC50 was 10.1 µM.

Molecule `CC(=O)N(Cc1csc(N2CCN(C)CC2)n1)c1ccc(F)cc1` [Compound 216, N-(4-fluorophenyl)-N-{[2-(4-methylpiperazin-1-yl)-1,3-thiazol-4-yl]methyl}acetamide] displayed an IC50 of 29.4 µM.

`Cc1ccc(N(Cc2cnc(N3CCCC3)s2)C(=O)[C@@H]2CCCN2)cc1` [Compound 121, N-(4-methylphenyl)-N-[(2-pyrrolidin-1-yl-1,3-thiazol-5-yl)methyl]-L-prolinamide] displayed an IC50 of 20.9 µM. This IC50 and that of the molecule before are within 1.5-fold of each other.

As for `CCN(c1nc(CN(C(=O)[C@@H]2CCCN2)c2ccc(F)cc2)cs1)C1CC1` [Compound 122, N-({2-[cyclopropyl(ethyl)amino]-1,3-thiazol-4-yl}methyl)-N-(4-fluorophenyl)-L-prolinamide], the IC50 worked out at 13.8 µM.

As for `CN(C)CCCNc1nc(CN(C(=O)C(C)(C)C)c2ccc(F)cc2)cs1` [Compound 154], the IC50 was found to be 9 µM.
